# Results taken from publication PMC6199744, “Development of Chemical Proteomics for the Folateome and Analysis of the Kinetoplastid Folateome” (ACS Infectious Diseases, 2018).
# Read-outs that look alike come from different tables or passages of the source.
# Columns and labels:
# Assay type in all cases: binding
# [1] = target: T1, HeLa cell extract proteins (Homo sapiens, UniProt P10515)
# T1 construct: endogenous in cells; host or cells: HeLa cell extract
# T1 sequence (P10515 87-647): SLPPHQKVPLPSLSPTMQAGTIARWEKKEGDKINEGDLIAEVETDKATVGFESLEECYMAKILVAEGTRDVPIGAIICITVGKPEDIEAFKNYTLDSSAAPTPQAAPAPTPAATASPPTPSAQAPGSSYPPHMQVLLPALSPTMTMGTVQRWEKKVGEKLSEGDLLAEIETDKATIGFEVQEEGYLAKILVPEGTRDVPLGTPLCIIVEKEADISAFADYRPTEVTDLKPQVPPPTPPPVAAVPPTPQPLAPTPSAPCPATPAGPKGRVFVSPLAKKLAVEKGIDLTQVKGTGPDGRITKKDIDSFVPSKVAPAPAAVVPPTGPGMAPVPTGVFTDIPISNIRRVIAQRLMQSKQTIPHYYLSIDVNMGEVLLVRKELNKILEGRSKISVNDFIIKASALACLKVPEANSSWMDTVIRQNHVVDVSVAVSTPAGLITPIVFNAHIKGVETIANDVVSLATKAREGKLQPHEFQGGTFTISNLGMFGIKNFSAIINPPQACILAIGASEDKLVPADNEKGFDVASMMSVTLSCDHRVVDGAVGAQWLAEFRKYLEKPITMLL
# [2] = target: T2, HeLa cell extract proteins (Homo sapiens, UniProt P38606)
# T2 construct: endogenous in cells; host or cells: HeLa cell extract
# T2 sequence (P38606 whole entry): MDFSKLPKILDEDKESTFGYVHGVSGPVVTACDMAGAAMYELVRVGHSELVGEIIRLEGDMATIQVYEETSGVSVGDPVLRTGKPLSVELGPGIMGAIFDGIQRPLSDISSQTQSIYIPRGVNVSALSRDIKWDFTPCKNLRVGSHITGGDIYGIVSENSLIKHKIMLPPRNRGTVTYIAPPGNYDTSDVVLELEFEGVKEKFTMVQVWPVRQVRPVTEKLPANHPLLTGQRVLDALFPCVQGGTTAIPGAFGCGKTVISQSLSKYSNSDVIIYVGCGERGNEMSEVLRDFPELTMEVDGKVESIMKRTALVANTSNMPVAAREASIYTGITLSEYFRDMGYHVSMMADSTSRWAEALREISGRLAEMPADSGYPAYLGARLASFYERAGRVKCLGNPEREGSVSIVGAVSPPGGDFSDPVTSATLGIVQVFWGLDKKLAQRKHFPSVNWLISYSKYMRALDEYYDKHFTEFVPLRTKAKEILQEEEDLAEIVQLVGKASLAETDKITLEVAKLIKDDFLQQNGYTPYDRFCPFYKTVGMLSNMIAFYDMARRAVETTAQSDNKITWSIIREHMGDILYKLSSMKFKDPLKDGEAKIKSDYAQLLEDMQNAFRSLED
# [3] = target: T3, HeLa cell extract proteins (Homo sapiens, UniProt P49773)
# T3 construct: endogenous in cells; host or cells: HeLa cell extract
# T3 sequence (P49773 whole entry): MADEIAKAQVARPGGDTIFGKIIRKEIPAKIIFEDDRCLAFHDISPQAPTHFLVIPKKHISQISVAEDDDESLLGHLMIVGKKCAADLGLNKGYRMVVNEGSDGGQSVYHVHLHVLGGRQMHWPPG
# [4] = target: T4, HeLa cell extract proteins (Homo sapiens, UniProt P60174)
# T4 construct: endogenous in cells; host or cells: HeLa cell extract
# T4 sequence (P60174 whole entry): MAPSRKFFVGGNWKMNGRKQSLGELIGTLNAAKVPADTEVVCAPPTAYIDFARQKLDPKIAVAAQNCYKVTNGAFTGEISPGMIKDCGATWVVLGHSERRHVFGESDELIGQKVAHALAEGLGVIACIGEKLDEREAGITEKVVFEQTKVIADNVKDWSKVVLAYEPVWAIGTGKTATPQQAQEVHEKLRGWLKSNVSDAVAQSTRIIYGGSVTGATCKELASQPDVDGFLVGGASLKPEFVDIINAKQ
# [5] = target: T5, HeLa cell extract proteins (Homo sapiens, UniProt Q6YN16)
# T5 construct: endogenous in cells; host or cells: HeLa cell extract
# T5 sequence (Q6YN16 1-418): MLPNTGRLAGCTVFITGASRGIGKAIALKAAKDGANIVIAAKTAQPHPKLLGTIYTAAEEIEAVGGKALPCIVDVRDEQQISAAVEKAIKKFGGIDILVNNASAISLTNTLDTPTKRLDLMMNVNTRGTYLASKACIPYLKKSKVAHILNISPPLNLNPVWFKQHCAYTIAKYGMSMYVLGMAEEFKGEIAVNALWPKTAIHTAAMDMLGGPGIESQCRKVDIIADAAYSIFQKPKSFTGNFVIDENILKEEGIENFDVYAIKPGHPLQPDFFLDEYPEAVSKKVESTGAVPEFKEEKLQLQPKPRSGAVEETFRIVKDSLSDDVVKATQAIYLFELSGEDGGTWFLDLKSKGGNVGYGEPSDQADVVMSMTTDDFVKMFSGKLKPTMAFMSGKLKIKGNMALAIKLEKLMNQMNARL
# [6] = target: T6, HeLa cell extract proteins (Homo sapiens, UniProt Q9H2U1)
# T6 construct: endogenous in cells; host or cells: HeLa cell extract
# T6 sequence (Q9H2U1 1-1008): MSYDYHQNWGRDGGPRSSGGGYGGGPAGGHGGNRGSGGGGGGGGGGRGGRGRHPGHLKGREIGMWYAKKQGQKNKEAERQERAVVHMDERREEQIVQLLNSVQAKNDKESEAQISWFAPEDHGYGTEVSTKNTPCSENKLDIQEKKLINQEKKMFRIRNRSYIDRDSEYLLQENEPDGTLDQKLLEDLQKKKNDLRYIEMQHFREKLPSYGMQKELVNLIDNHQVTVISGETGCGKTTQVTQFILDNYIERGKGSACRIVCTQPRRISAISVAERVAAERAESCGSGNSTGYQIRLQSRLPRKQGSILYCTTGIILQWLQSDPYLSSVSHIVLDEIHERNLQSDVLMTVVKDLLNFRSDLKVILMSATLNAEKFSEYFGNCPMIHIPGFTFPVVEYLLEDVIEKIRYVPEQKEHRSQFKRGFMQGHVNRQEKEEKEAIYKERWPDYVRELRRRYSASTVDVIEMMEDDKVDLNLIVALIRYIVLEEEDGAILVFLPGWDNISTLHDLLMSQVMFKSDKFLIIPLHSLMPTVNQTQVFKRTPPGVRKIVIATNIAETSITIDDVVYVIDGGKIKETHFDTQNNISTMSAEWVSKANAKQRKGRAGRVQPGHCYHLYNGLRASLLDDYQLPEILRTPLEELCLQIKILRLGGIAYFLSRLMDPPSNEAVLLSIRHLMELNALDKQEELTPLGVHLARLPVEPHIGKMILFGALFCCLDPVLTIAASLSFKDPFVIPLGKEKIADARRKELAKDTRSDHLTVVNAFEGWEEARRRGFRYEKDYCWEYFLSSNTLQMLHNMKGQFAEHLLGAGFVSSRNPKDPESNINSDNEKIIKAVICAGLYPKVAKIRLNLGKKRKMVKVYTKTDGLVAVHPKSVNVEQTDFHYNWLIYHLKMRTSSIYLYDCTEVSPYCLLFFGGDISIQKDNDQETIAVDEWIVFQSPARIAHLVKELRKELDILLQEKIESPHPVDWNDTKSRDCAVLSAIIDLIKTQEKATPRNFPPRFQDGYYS
# [7] = target: T7, HeLa cell extract proteins (Homo sapiens, UniProt Q9HCC0)
# T7 construct: endogenous in cells; host or cells: HeLa cell extract
# T7 sequence (Q9HCC0 23-563): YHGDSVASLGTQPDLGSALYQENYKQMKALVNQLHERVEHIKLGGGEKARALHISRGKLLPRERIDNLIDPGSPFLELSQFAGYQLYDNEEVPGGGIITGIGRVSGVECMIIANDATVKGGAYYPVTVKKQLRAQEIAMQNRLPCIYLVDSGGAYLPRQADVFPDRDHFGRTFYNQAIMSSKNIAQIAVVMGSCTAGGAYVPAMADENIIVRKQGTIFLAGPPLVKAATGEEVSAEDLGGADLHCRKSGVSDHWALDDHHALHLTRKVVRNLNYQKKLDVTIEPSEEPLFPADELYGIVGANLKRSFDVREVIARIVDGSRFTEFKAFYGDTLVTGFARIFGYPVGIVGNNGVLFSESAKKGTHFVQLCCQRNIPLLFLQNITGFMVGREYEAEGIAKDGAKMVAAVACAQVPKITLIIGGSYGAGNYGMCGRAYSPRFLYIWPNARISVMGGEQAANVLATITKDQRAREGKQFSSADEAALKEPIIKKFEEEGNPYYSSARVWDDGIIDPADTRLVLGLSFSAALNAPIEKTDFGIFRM
# [8] = target: T8, HeLa cell extract proteins (Homo sapiens, UniProt Q9NPA3)
# T8 construct: endogenous in cells; host or cells: HeLa cell extract
# T8 sequence (Q9NPA3 whole entry): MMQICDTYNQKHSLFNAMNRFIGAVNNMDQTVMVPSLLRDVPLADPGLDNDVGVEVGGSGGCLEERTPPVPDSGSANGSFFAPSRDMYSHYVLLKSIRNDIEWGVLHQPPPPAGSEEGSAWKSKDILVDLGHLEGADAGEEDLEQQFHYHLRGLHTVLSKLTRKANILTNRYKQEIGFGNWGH
# [9] = HeLa, protein DHX36 (ISOFORM 1 OF PROBABLE ATP-DEPENDENT RNA HELICASE DHX36)
# [10] = HeLa, protein TPI1 (ISOFORM 1 OF TRIOSEPHOSPHATE ISOMERASE.)
# [11] = HeLa, protein DLAT (DIHYDROLIPOYLLYSINE-RESIDUE ACETYLTRANSFERASE COMPONENT OF PYRUVATE DEHYDROGENASE COMPLEX, MITOCHONDRIAL)
SMILES,"fold changes relative to vehicle control ([2]; HeLa, protein ATP6V1A)","fold changes relative to vehicle control ([3]; HeLa, captured protein HINT1)","fold changes relative to vehicle control ([4]; HeLa, protein TPI1)","fold changes relative to vehicle control ([5]; HeLa, protein HSDL2)","fold changes relative to vehicle control [6, 9]","fold changes relative to vehicle control ([7]; HeLa, protein MCCC2)","fold changes relative to vehicle control ([8]; HeLa, protein MIG12)","fold changes relative to vehicle control ([1]; protein DLAT, HeLa)","fold changes relative to vehicle control ([2]; protein ATP6V1A, HeLa)","fold changes relative to vehicle control ([3]; HeLa, protein HINT1)","fold changes relative to vehicle control ([5]; protein HSDL2, HeLa)","fold changes relative to vehicle control ([6]; protein DHX36, HeLa)","fold changes relative to vehicle control ([7]; captured protein MCCC2, HeLa)","fold changes relative to vehicle control ([8]; captured protein MIG12, HeLa)",further results
"Nc1nc2c(c(=O)[nH]1)N(C=O)C(CNc1ccc(C(=O)N[C@@H](CCC(=O)O)C(=O)O)cc1)CN2 (some centres unmarked) [LEU, leucovorin]",1,1.12,1.03,0.96,1.12,0.94,0.91,,,,,,,,"fold changes relative to vehicle control ([1]; HeLa, protein DLAT ([…]-RESIDUE ACETYLT[…] OF PYRUVATE DEH[…], MITOCHONDRIAL)): 1.05"
"Nc1nc2[nH]cc(CCc3ccc(C(=O)N[C@@H](CCC(=O)O)C(=O)O)cc3)c2c(=O)[nH]1 [PTX, pemetrexed]",,,,,,,,,,,,,,,fold changes relative to vehicle control [1]: 0.96; fold changes relative to vehicle control [2]: 0.9; fold changes relative to vehicle control [3]: 0.77; fold changes relative to vehicle control [4]: 1.22; fold changes relative to vehicle control [5]: 0.96; fold changes relative to vehicle control [6]: 0.99; fold changes relative to vehicle control [7]: 0.87; fold changes relative to vehicle control [8]: 0.96
CCCCCCOc1ccc(Cc2cnc(N)nc2N)cc1 [compound 1],,,,,,,,0.98,1.04,1.03,1.11,1.17,0.78,0.84,"fold changes relative to vehicle control [4, 10]: 1.44 fold"
CCCCCCOc1cccc(Cc2cnc(N)nc2N)c1 [compound 2],,,,,,,,0.39,1.5,0.99,1.23,0.91,1.08,1,"fold changes relative to vehicle control [4, 10]: 2.37 fold"
Nc1nc2cccc(-c3ccccc3)c2n1Cc1ccc(Cl)c(Cl)c1 [compound 3],,,,,,,,1.1,0.83,1.17,0.96,0.98,0.86,0.95,"fold changes relative to vehicle control ([4]; HeLa, protein TPI1 (ISOFORM 1 OF TRIOS[…].)): 0.88 fold"
NCCOCCOCC(=O)Nc1nc2ncc(CNc3ccc(C(=O)NC(CCC(=O)O)C(=O)O)cc3)nc2c(=O)[nH]1 (centres unmarked) [compound 6],1.04,1.33,1.41,1.04,1.07,1,1.1,,,,,,,,"fold changes relative to vehicle control [1, 11]: 0.92"
NCCCNc1ccc(C(=O)NC(CCC(=O)O)C(=O)O)cc1 (centres unmarked) [compound 7],0.93,1.33,1,1.02,1.03,1,1.11,,,,,,,,"fold changes relative to vehicle control [1, 11]: 0.97"
